{"source": "paper PMC7881127", "about": "“Cholesterol as a modulator of cannabinoid receptor CB2 signaling” (Scientific Reports, 2021)", "biological_target": "T1, hCB2 (Homo sapiens, UniProt P34972)", "T1 construct": "purchased PerkinElmer ES111-M400UA; host or cells: CHO-K1 cells stably transfected", "T1 sequence (P34972 whole entry)": "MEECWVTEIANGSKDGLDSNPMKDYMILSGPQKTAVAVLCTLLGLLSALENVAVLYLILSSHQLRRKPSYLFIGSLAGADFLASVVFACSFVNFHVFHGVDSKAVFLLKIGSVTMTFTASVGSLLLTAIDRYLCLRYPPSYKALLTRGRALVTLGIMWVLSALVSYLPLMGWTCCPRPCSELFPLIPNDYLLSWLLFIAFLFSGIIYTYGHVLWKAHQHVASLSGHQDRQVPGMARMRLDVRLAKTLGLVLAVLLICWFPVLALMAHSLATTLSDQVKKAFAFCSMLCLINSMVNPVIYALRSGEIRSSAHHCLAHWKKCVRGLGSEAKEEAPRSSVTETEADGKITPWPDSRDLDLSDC", "assay": "[35S]GTPγS binding assay in hCB2-CHO-K1 cell membranes", "type": "biochemical", "protocol": "Figure 2 Affinity and functional effects of novel MRI ligands on CB2 receptor in CHO cell membranes. (a) binding affinities (nM) and Emax (% and nM) of [^35S]-GTPγS binding to CHO membranes (PerkinElmer, Cat. No ES111-M400UA) expressing hCB2. (b) [^35S]-GTPγS binding to membranes as a factor of ligand concentration. Binding of [^35S]-GTPγS was determined as described in “Methods”. Non-specific binding was defined as 0% activity. The assay of GTPγS non-specific binding contains non-radioactive GTPγS.\n[^35S] GTPγS binding was assayed as described earlier[65] with slight modifications. Briefly, hCB2-CHO-K1 cell membranes (4 µg) were incubated with 0.05 nM [^35S] GTPγS, and the indicated concentrations of ligands in TEM buffer (50 mM Tris–HCl, 0.2 mM EGTA, and 9 mM MgCl2, pH 7.4) containing 100 µM GDP, 150 mM NaCl, and 0.1% (w/v) bovine serum albumin in a total volume of 1 ml for 60 min at 30 °C.", "data": [{"smiles": "CC(=O)OCCn1c(=NC(=O)C2C(C)(C)C2(C)C)sc2cc(Cl)ccc21", "note": "[MRI-2646, 2-(6-Chloro-2-((2,2,3,3-tetramethylcyclopropane-1-carbonyl)imino)benzo[d]thiazol-3(2H)-yl)ethyl acetate]", "values": [{"measurement": "Emax", "setting": "CHO membranes expressing hCB2 (PerkinElmer ES111-M400UA), read-out: GTPγS binding Emax", "value": "-2 ± 4", "unit": "%"}, {"measurement": "Functional effect on G-protein signaling (pharmacological category)", "setting": "hCB2-expressing CHO cell membranes (PerkinElmer)", "value": "no effect on basal signaling"}]}]}
